According to patent US20110097405A1, “ESTRADIOL-CONTAINING DRUG DELIVERY SYSTEM” (Bayer Schering Pharma Aktiengesellschaft, priority 2008, published 2011):

Key:
[1] = Kuhnt et al.; cited from earlier work
[2] = Clinical study (PK study): relative bioavailability and PK profile of estradiol after wafers vs oral tablet and intranasal spray; format: in vivo, healthy postmenopausal women; conditions: female, human
Experimental: Finally, it is the present inventors' experience that the serum estradiol values are somewhat dependent on the applied laboratory assay.
The following not-dose-normalised data, where all parameters are expressed in percentage of the respective Aerodiol® values, were obtained:
Estradiol may be determined by two different assays:
The analytes and their deuterated internal standards are extracted from 1.00 ml of human serum using BondElut Certify® solid-phase cartridges. Estradiol and estrone are eluted from the solid phase cartridges with ethyl acetate. The analytes undergo three separate derivatisation steps: (1) reaction with pentafluorobenzoyl chloride, (2) reaction with O-(2,3,4,5,6-pentafluorobenzyl)-hydroxylamine hydrochloride, and (3) reaction with MSTFA. The derivatised analytes are then separated by gas chromatography using a DB-17 fused silica capillary column and detected by tandem mass spectrometry using negative ion chemical ionization. A 1/(concentration)^2 weighted least-squares regression procedure is used to fit a linear function to the calibration data.
A 500 μl sample aliquot is fortified with 25 μl of internal standard working solution. Analytes are isolated through liquid-liquid extraction with 5.0 ml of 10:90 (v/v) ethyl acetate/hexane. The solvent is evaporated under a stream of nitrogen at 40-50° C. and the remaining residue is derivatizsd. The derivatised analytes are extracted into 3.0 m of 10:90 (v/v) ethyl acetate/hexane, the solvent is evaporated, and the remaining residue is reconstituted with 150 μl acetonitrile and 200 μl water. The final extract is analyzed via high-performance liquid chromatography with tandem mass spectrometry detection.

[3] = intranasal, cited from earlier work

Cmax ([2]; serum, 90 ug) | bioavailability ([2]; in vivo) | bioavailability, usually ([2]; in vivo) | SMILES | bioavailability after oral administration [1] | time until pre-treatment level is reached ([3]; after administration) | time to maximum plasma levels [3]
0.5 to 0.8 ng/mL | – | – | C[C@]12CC[C@@H]3c4ccc(O)cc4CC[C@H]3[C@@H]1CC[C@@H]2O [estradiol] | about 5% | about 12 hours | 10 to 30 min
– | 30-60% | 30-50% | CCCCC(=O)O[C@H]1CC[C@H]2[C@@H]3CCc4cc(O)ccc4[C@H]3CC[C@]12C [estradiol valerate] | – | – | –
